8 compounds from ChEMBL document CHEMBL1134688, “Synthesis, biological evaluation, and pharmacophore generation of new pyridazinone derivatives with affinity toward alpha(1)- and alpha(2)-adrenoceptors” (J Med Chem, 2001) can be followed below.

Experiment [1] concerns the target T1, Adrenergic receptor alpha-1 (Rattus norvegicus, UniProt P15823+P23944+P43140).
T1 sequence (P15823 whole entry): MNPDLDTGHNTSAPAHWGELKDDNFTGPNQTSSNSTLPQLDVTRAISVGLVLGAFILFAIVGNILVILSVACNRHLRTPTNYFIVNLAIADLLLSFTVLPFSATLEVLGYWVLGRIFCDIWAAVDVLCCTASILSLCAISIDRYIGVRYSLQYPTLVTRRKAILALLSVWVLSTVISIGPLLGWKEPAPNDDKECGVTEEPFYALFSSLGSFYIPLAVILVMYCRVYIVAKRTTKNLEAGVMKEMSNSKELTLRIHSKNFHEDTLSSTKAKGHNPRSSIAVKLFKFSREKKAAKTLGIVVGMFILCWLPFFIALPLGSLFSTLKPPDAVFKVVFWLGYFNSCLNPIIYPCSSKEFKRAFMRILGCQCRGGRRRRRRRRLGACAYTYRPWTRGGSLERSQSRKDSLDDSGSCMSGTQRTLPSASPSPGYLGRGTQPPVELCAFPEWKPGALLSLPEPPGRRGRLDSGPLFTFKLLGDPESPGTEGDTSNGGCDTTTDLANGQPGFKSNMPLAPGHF
T1 sequence (P23944 whole entry): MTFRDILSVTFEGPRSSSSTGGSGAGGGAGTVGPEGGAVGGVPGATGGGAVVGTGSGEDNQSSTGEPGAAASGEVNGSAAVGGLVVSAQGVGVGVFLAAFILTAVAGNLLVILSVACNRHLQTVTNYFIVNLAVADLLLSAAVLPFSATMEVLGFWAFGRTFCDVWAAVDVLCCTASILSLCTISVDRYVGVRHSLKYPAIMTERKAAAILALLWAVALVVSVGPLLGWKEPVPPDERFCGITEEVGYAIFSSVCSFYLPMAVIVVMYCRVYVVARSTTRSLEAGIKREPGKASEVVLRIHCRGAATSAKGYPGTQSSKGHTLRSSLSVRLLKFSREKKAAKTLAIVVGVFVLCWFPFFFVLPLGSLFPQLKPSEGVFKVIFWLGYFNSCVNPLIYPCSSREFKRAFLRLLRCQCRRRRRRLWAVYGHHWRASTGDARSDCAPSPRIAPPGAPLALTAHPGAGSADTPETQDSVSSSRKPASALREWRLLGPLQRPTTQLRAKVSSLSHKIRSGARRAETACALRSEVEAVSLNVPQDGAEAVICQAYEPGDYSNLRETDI
T1 sequence (P43140 whole entry): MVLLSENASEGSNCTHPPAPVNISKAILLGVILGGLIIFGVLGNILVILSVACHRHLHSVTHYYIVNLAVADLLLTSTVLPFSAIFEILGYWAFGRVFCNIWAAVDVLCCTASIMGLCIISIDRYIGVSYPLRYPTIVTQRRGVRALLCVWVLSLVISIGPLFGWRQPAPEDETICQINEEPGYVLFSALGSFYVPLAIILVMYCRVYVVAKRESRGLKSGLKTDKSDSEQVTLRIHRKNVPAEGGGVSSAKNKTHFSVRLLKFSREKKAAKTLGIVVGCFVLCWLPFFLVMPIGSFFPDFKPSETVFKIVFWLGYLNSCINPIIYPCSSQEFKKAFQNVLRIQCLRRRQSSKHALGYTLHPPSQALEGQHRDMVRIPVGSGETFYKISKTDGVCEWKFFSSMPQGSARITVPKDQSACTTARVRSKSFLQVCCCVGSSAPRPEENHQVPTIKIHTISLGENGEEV
Description: Alpha-1 adrenergic receptor binding affinity of the compound, value taken from literature. Type of experiment: protein assay.

Experiment [2] addresses T1, Adrenergic receptor alpha-1. Description: Alpha-1-adrenergic receptor binding affinity of the compound, value taken from literature. The experiment is classed as protein assay.
For experiment [3], the target named is Adrenergic receptor alpha-2 (Rattus norvegicus) (UniProt P22086+P19328+P22909). In words: Ratio of binding affinity towards Alpha-2 and alpha-1 adrenergic receptor. The experiment is classed as protein assay.
The target in experiment [4] is T1, Adrenergic receptor alpha-1. Description: Binding affinity towards alpha-1 adrenergic receptor in rat cortex membrane using [3H]-prazosin radioligand. The experiment is classed as cell membranes.
For experiment [5], the target named is T2, Adrenergic receptor alpha-2 (Rattus norvegicus, UniProt P22086+P19328+P22909).
T2 sequence (P22086 whole entry): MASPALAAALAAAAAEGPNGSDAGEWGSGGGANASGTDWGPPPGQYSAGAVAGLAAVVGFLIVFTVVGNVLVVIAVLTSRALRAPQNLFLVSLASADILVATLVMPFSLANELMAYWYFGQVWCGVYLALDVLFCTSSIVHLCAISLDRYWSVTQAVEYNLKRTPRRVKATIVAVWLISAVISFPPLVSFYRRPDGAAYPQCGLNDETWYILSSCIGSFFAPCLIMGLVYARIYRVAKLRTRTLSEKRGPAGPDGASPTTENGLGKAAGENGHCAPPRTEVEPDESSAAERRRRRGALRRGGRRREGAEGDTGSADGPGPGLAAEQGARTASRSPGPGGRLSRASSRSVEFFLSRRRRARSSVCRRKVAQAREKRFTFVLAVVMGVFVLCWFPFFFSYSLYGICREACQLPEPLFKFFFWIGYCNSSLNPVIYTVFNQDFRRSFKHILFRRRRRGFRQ
T2 sequence (P19328 whole entry): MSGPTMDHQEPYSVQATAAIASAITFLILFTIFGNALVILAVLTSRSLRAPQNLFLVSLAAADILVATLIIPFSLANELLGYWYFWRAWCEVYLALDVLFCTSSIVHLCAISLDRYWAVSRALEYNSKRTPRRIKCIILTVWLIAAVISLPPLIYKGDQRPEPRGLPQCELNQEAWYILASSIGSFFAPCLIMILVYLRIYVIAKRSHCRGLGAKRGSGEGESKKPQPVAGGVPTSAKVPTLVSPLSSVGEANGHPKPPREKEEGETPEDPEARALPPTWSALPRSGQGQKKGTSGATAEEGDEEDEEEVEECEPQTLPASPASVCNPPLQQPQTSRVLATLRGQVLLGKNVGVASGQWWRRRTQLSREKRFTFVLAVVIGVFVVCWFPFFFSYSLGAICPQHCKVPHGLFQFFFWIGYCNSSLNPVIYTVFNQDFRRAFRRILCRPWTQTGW
T2 sequence (P22909 whole entry): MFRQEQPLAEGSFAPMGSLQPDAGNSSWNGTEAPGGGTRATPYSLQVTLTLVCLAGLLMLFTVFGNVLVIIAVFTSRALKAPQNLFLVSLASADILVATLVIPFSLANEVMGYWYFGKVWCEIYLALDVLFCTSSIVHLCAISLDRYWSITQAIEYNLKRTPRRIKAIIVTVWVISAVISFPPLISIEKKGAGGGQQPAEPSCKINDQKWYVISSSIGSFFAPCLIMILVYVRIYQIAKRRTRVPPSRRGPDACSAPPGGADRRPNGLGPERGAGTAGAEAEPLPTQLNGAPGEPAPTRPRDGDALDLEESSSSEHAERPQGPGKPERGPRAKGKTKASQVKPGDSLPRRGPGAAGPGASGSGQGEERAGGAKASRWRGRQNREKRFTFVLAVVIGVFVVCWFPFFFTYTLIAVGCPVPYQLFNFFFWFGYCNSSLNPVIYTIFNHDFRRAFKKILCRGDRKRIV
In words: Binding affinity towards alpha-2 adrenergic receptor in rat cortex membrane using [3H]rauwolscine radioligand. The experiment is classed as cell membranes.

Regarding `COc1ccccc1N1CCN(CCCCN2C(=O)CCC2=O)CC1`, the Ki (usually the equilibrium dissociation constant of an inhibitor or competing ligand from its target) in experiment [1] worked out at 11.9 nM. Same read-out and setting: for `O=C1CCc2ccccc2N1CCCCN1CCN(c2ncccn2)CC1` the value was 374 nM. In the case of `COc1ccccc1N1CCN(CCn2c(=O)[nH]c3c([nH]c4ccccc43)c2=O)CC1`, in experiment [2], the inhibitory constant (Ki) is reported as 0.21 nM. Take `COc1ccccc1N1CCN(CCCCN2C(=O)CCc3ccccc32)CC1`: the Ki in experiment [1] is reported as 0.34 nM. On the same count and under the same terms, for `COc1ccccc1N1CCN(CCNC(=O)C23CC4CC(CC(C4)C2)C3)CC1` the value was 17.5 nM; for `CCC(=O)NCCN1CCN(c2ccccc2OC)CC1`, 258 nM. Take `COc1ccccc1OCCN1CCN(c2cnn(CCCCN3CCN(c4ccccc4Cl)CC3)c(=O)c2Cl)CC1`: the Ratio in experiment [3] came out at 4. For the same compound, the results for the Ki in experiment [4] and in experiment [5] were 10 nM and 39.3 nM, respectively. As to `COc1ccccc1OCCN1CCN(c2ccc(=O)n(CCCN3CCN(c4ccccc4OC)CC3)n2)CC1`, the Ratio in experiment [3] stood at 34.8. The Ki in experiment [4] was found to be 7.3 nM; in experiment [5] it was 254 nM.
